Experimental findings from patent US12516046B2, “2-oxo-oxazolidine-5-carboxamides as NAV1.8 inhibitors” (Merck Sharp & Dohme LLC, priority 2020, dated 2026) are described below.

Each structure is given as a SMILES string.

What is called IC50 is the concentration that inhibits the measured activity by half. High values mean weaker potency in that assay, low ones greater potency in that assay.

The experiment deals with human Nav1.8 (Homo sapiens (Human), UniProt Q9Y5Y9). The experiment in a line: Nav1.8 Qube® Assay (automated 384-well patch-clamp). The conditions noted are these: human Nav1.8 channels stably expressed in HEK 293 cells. The format is cell-based. The source says: Qube® Assay Experimental Procedure
Sequence of human Nav1.8 (Q9Y5Y9 whole entry): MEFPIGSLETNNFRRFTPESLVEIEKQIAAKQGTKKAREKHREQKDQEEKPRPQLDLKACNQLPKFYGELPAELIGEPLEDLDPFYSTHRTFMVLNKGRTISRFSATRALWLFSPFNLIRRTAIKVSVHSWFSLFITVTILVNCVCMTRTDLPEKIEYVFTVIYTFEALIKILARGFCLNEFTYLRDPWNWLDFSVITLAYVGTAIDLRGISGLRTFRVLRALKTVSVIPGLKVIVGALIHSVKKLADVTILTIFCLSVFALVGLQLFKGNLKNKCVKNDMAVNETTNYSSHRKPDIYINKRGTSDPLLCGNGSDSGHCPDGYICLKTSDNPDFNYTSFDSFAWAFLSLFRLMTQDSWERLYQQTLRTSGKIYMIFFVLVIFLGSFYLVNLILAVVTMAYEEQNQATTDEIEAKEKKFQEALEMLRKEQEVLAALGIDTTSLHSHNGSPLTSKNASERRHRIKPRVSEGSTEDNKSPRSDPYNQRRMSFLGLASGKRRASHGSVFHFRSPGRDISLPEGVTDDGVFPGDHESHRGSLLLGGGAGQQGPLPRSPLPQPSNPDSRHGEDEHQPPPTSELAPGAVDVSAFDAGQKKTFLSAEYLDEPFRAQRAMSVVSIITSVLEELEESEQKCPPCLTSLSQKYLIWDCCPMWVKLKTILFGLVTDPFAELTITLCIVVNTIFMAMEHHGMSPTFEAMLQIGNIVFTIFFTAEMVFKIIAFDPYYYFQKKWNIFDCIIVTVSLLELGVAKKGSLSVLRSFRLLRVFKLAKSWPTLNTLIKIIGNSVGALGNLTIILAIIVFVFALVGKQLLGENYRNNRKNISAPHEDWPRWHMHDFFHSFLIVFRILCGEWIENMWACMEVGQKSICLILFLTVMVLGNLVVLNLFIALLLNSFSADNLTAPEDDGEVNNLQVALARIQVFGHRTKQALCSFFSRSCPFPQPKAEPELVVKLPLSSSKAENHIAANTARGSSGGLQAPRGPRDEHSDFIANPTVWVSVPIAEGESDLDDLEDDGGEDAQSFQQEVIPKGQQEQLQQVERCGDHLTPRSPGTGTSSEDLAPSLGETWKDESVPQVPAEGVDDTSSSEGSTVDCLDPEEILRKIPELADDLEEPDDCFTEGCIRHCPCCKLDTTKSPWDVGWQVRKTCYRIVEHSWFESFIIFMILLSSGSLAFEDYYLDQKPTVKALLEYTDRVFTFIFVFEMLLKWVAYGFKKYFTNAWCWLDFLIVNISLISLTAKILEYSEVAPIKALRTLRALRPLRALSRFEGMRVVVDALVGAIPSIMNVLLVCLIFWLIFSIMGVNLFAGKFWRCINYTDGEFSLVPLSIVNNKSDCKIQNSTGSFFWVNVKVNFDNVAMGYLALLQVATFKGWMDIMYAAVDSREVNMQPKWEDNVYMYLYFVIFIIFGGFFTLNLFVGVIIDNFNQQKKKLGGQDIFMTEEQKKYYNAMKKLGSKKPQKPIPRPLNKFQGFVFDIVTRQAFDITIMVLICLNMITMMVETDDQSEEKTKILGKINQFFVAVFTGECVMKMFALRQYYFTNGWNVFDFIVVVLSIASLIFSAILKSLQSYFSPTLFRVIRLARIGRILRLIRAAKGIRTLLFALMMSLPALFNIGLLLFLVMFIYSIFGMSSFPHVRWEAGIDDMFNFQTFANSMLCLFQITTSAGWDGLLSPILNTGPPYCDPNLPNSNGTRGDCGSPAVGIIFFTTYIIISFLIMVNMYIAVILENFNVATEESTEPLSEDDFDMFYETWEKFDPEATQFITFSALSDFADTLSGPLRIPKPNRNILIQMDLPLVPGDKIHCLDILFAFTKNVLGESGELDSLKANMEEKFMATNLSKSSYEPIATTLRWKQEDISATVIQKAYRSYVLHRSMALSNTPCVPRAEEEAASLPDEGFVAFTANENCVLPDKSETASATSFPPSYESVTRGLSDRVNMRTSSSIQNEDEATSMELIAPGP
In general terms: In patch-clamp work, channel activity is measured electrically.
Consider `O=C1NC[C@@H](C(=O)NC(c2ccccc2)c2ccc(Cl)c(Cl)c2)O1` (single isomer, unassigned) [Example 25B, (S)-N-((R or S)-(3,4-dichlorophenyl) (phenyl)methyl)-2-oxooxazolidine-5-carboxamide], for which the IC50 worked out at 14 nM. This counts as double-digit nanomolar.
With `COc1ncccc1C(NC(=O)[C@@H]1CNC(=O)O1)c1ccc(F)c(Cl)c1` (single isomer, unassigned) [Example 58B, (S)-N-((R or S)-(3-chloro-4-fluorophenyl)(2-methoxypyridin-3-yl)methyl)-2-oxooxazolidine-5-carboxamide] the figure was 24 nM.
Next, `O=C1NC[C@@H](C(=O)NC(c2ccc(OC(F)(F)F)c(Cl)c2)c2cnn(C(F)(F)F)c2)O1` (single isomer, unassigned) [Example 53A, (S)-N-((R or S)-(3-chloro-4-(trifluoro-methoxy)phenyl)(1-(trifluoromethyl)-1H-pyrazol-4-yl)methyl)-2-oxooxazolidine-5-carboxamide]: 22 nM; `O=C1NC[C@@H](C(=O)NC(c2ccc(Cl)cc2)c2ccc(Cl)cc2OC(F)(F)F)O1` (single isomer, unassigned) [Example 47A, (S)-N-((R or S)-(4-chloro-2-(trifluoromethoxy)phenyl)(4-chlorophenyl)methyl)-2-oxooxazolidine-5-carboxamide]: 1.6 nM.
Next, `CC1(C(=O)NC(c2ccc(Cl)cc2)c2ccc(Cl)cc2)CNC(=O)O1` (single isomer, unassigned) [Example 7B, (R or S)—N-(bis(4-chlorophenyl)methyl)-5-methyl-2-oxooxazolidine-5-carboxamide]: 2030 nM.
Molecule `O=C1NC[C@@H](C(=O)NC(c2ccc(F)c(Cl)c2F)[C@@H]2CC[C@@H](C(F)(F)F)CO2)O1` (single isomer, unassigned) [Example 9C] displayed a half-maximal inhibitory concentration (IC50) of 356 nM.
With `CS(=O)(=O)c1cccc(C(NC(=O)[C@@H]2CNC(=O)O2)c2ccc(Cl)cc2)c1` (stereo partly drawn) [Example 27, (5S)-N-((4-chlorophenyl)(3-(methylsulfonyl)phenyl)methyl)-2-oxooxazolidine-5-carboxamide] the figure was 705 nM.
With `O=C1NC[C@@H](C(=O)NC(c2ccccc2)c2cc(Cl)cc(Cl)c2)O1` (stereo partly drawn) [Example 20, (5S)-N-((3,5-dichlorophenyl) (phenyl)methyl)-2-oxooxazolidine-5-carboxamide] the figure was 32 nM.
Next, `O=C1NC[C@@H](C(=O)NC(c2ccc(Cl)cc2)C2CCC(F)(F)C2)O1` (single isomer, unassigned) [Example 57B, (S)-N-((R or S)-(4-chlorophenyl)((R or S)-3,3-difluorocyclopentyl)methyl)-2-oxooxazolidine-5-carboxamide]: 5720 nM; `O=C1NC[C@@H](C(=O)NC(c2ccc(F)c(Cl)c2)c2ccc(F)c(C(F)(F)F)n2)O1` (stereo partly drawn) [Example 38, (5S)-N-((3-chloro-4-fluorophenyl)(5-fluoro-6-(trifluoromethyl)pyridin-2-yl)methyl)-2-oxooxazolidine-5-carboxamide]: 2.1 nM; `O=C1NC[C@@H](C(=O)NC(c2ccc(Cl)cc2)C2CCN(CC(F)(F)F)CC2)O1` (single isomer, unassigned) [Example 42B, (S)-N-((R or S)-(4-chlorophenyl)(1-(2,2,2-trifluoroethyl)piperidin-4-yl)methyl)-2-oxooxazolidine-5-carboxamide]: 272 nM.
The molecule `O=C1NC[C@@H](C(=O)NC(CCc2ccc(Cl)cc2)c2ccc(F)c(Cl)c2F)O1` (single isomer, unassigned) [Example 65A, (S)—N—((R or S)-1-(3-chloro-2,4-difluorophenyl)-3-(4-chlorophenyl)propyl)-2-oxooxazolidine-5-carboxamide] had an IC50 of 94 nM.
With `O=C1NC[C@@H](C(=O)NC(c2ccc(Cl)cc2)c2ccc(Cl)c(C(F)(F)F)c2)O1` (single isomer, unassigned) [Example 35B, (S)-N-((R or S)-(4-chloro-3-(trifluoromethyl)phenyl)(4-chlorophenyl)methyl)-2-oxooxazolidine-5-carboxamide] the figure was 3.8 nM; with `CC(C)(C)c1csc(C(NC(=O)[C@@H]2CNC(=O)O2)c2ccc(Cl)cc2)n1` (single isomer, unassigned) [Example 39A, (S)-N-((R or S)-(4-(tert-butyl)thiazol-2-yl)(4-chlorophenyl)methyl)-2-oxooxazolidine-5-carboxamide], 5.1 nM; with `O=C1NC[C@@H](C(=O)NC(c2ccc(Cl)cc2)C2CCN(CC(F)(F)F)CC2)O1` (single isomer, unassigned) [Example 42A, (S)-N-((R or S)-(4-chlorophenyl)(1-(2,2,2-trifluoroethyl)piperidin-4-yl)methyl)-2-oxooxazolidine-5-carboxamide], 936 nM.
Next, `COc1ccc(C(NC(=O)[C@@H]2CNC(=O)O2)c2ccc(Cl)cc2)cn1` (single isomer, unassigned) [Example 22B, (S)-N-((R or S)-(4-chlorophenyl)(6-methoxypyridin-3-yl)methyl)-2-oxooxazolidine-5-carboxamide]: 314 nM.
As to `O=C1NC[C@@H](C(=O)NC(c2ccccc2)C2C3CC4CC(C3)CC2C4)O1` (stereo partly drawn) [Example 21, (5S)-N-((adamantan-2-yl)(phenyl)methyl)-2-oxooxazolidine-5-carboxamide], the half-inhibitory concentration (IC50) was 293 nM.
In turn, `O=C1NC[C@@H](C(=O)NC(c2ccc(Cl)cc2)c2ccc(F)c(Cl)c2)O1` (single isomer, unassigned) [Example 19A, (S)—N—((R or S)-(3-chloro-4-fluorophenyl)(4-chlorophenyl)methyl)-2-oxooxazolidine-5-carboxamide] showed an IC50 of 0.9 nM.
With `O=C1NC[C@@H](C(=O)NC(c2ccc(F)c(Cl)c2)c2ccn(C(F)F)n2)O1` (single isomer, unassigned) [Example 60A, (S)-N-((R or S)-(3-chloro-4-fluorophenyl)(1-(difluoromethyl)-1H-pyrazol-3-yl)methyl)-2-oxooxazolidine-5-carboxamide] the figure was 231 nM; with `O=C1NC[C@@H](C(=O)NC(c2ccc(Cl)cc2)c2cccc(C3CC3)c2)O1` (single isomer, unassigned) [Example 33A, (S)-N-((R or S)-(4-chlorophenyl)(3-cyclopropylphenyl)methyl)-2-oxooxazolidine-5-carboxamide], 4.8 nM.
Turning to `O=C1NC[C@@H](C(=O)NC(c2ccc(Cl)cc2)c2ccc(OC(F)F)nc2)O1` (stereo partly drawn) [Example 36, (5S)-N-((4-chlorophenyl)(6-(difluoromethoxy)pyridin-3-yl)methyl)-2-oxooxazolidine-5-carboxamide], half-maximal inhibition (IC50) required 69 nM.
With `O=C1NC[C@@H](C(=O)NC(c2ccc(Cl)cc2)C2CCC(F)(F)C2)O1` (single isomer, unassigned) [Example 57D, (S)-N-((R or S)-(4-chlorophenyl)((R or S)-3,3-difluorocyclopentyl)methyl)-2-oxooxazolidine-5-carboxamide] the figure was 1160 nM; with `Cn1nc(C(NC(=O)[C@@H]2CNC(=O)O2)c2ccc(F)c(Cl)c2)cc1C(F)(F)F` (single isomer, unassigned) [Example 62B, (S)-N-((R or S)-(3-chloro-4-fluorophenyl)(1-methyl-5-(trifluoromethyl)-1H-pyrazol-3-yl)methyl)-2-oxooxazolidine-5-carboxamide], 11 nM.
`Cn1nc(C(F)(F)F)cc1C(NC(=O)[C@@H]1CNC(=O)O1)c1ccc(F)c(Cl)c1` (single isomer, unassigned) [Example 61B, (S)-N-((R or S)-(3-chloro-4-fluorophenyl)(1-methyl-3-(trifluoromethyl)-1H-pyrazol-5-yl)methyl)-2-oxooxazolidine-5-carboxamide] had a half-maximal inhibitory concentration (IC50) of 231 nM.
Next, `O=C1NC[C@@H](C(=O)NC(c2ccc(F)c(Cl)c2F)[C@H]2C[C@H](C(F)(F)F)C2)O1` (single isomer, unassigned) [Example 70, (S)—N—((R or S)-(3-chloro-2,4-difluorophenyl)((trans)-3-(trifluoromethyl)cyclobutyl)methyl)-2-oxooxazolidine-5-carboxamide]: 5.4 nM; `O=C1NC[C@@H](C(=O)NC(c2ccc(Cl)cc2)c2ccc(Cl)c(C(F)(F)F)n2)O1` (single isomer, unassigned) [Example 2B, (S)—N—((R or S)-(5-chloro-6-(trifluoromethyl)pyridin-2-yl)(4-chlorophenyl)methyl)-2-oxooxazolidine-5-carboxamide]: 30 nM; `O=C1NC[C@@H](C(=O)NC(c2ccc(F)c(Cl)c2)c2csc(C(F)(F)F)n2)O1` (single isomer, unassigned) [Example 44A, (S)—N—((R or S)-(3-chloro-4-fluorophenyl)(2-(trifluoromethyl)thiazol-4-yl)methyl)-2-oxooxazolidine-5-carboxamide]: 4.6 nM.
With `O=C1NC[C@@H](C(=O)NC(c2ccc(Cl)cc2)C2CCC(F)(F)C2)O1` (single isomer, unassigned) [Example 57C, (S)-N-((R or S)-(4-chlorophenyl)((R or S)-3,3-difluorocyclopentyl)methyl)-2-oxooxazolidine-5-carboxamide] the figure was 903 nM; with `O=C1NC[C@@H](C(=O)NC(c2ccc(F)c(Cl)c2)c2cnn(CC(F)(F)F)c2)O1` (single isomer, unassigned) [Example 59A, (S)-N-((R or S)-(3-chloro-4-fluorophenyl)(1-(2,2,2-trifluoroethyl)-1H-pyrazol-4-yl)methyl)-2-oxooxazolidine-5-carboxamide], 171 nM.
The molecule `N#Cc1ccc(C(NC(=O)[C@@H]2CNC(=O)O2)c2cnc(C(F)(F)F)c(Cl)c2)cc1Cl` (single isomer, unassigned) [Example 54A, (S)-N-((R or S)-(3-chloro-4-cyano-phenyl)(5-chloro-6-(trifluoromethyl)pyridin-3-yl)methyl)-2-oxooxazolidine-5-carboxamide] displayed a half-inhibitory concentration (IC50) of 1.7 nM.
